Source: PubChem BioAssay AID1963875 (Molecular Pharmacology Branch, DTP, NCI, 2024)

Test system: KRAS-mutant PDC complex spheroid viability
Assay: Anticancer human tumor 186277-243-T-J2-PDC patient-derived colon adenocarcinoma cell line growth inhibition [KRAS2]
Settings: for IC50: curve of first compound; for viability, T/C: stronger effect = lower value
Procedure, shortened: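 KRAS-mutant tumor cells were grown as spheroids with HUVEC endothelial cells and human MSCs as stroma. Targeted agents were tested alone and with KRAS pathway inhibitors. Doses started at or near clinical Cmax, or 10 microM, descending half-log.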

[1] = second compound 0.1 µM, first compound 0.0316 µM
[2] = second compound 0.1 µM, first compound 0.1 µM
[3] = second compound 0.1 µM, first compound 0.316 µM
[4] = second compound 0.1 µM, first compound 1 µM
[5] = second compound 0.1 µM, first compound 3.16 µM
[6] = second compound 0.1 µM, first compound 10 µM
[7] = second compound 0.316 µM, first compound 0.0316 µM
[8] = second compound 0.316 µM, first compound 0.1 µM
[9] = second compound 0.316 µM, first compound 0.316 µM
[10] = second compound 0.316 µM, first compound 1 µM
[11] = second compound 0.316 µM, first compound 3.16 µM
[12] = second compound 0.316 µM, first compound 10 µM
[13] = second compound 1 µM, first compound 0.0316 µM
[14] = second compound 1 µM, first compound 0.1 µM
[15] = second compound 1 µM, first compound 0.316 µM
[16] = second compound 1 µM, first compound 1 µM
[17] = second compound 1 µM, first compound 3.16 µM
[18] = second compound 1 µM, first compound 10 µM
[19] = second compound 3.16 µM, first compound 0.0316 µM
[20] = second compound 3.16 µM, first compound 0.1 µM
[21] = second compound 3.16 µM, first compound 0.316 µM
[22] = second compound 3.16 µM, first compound 1 µM
[23] = second compound 3.16 µM, first compound 3.16 µM
[24] = second compound 3.16 µM, first compound 10 µM
[25] = second compound 10 µM, first compound 0.0316 µM
[26] = second compound 10 µM, first compound 0.1 µM
[27] = second compound 10 µM, first compound 0.316 µM
[28] = second compound 10 µM, first compound 1 µM
[29] = second compound 10 µM, first compound 3.16 µM
[30] = second compound 10 µM, first compound 10 µM
[31] = second compound 0.0316 µM, first compound 0.01 µM
[32] = second compound 0.0316 µM, first compound 0.0316 µM
[33] = second compound 0.0316 µM, first compound 0.1 µM
[34] = second compound 0.1 µM, first compound 0.01 µM
[35] = second compound 0.316 µM, first compound 0.01 µM
[36] = second compound 1 µM, first compound 0.01 µM
[37] = second compound 3.16 µM, first compound 0.01 µM
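Wherever viability, T/C is given: viability read after seven days of compound exposure; 100% = DMSO vehicle-treated spheroids so lower means less viable.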

With CC1OCC2(CCN(c3cnc(Sc4ccnc(N)c4Cl)c(N)n3)CC2)C1N (stereo not given) + C=CC(=O)N1CCN(c2nc(=O)n(-c3c(C)ccnc3C(C)C)c3nc(-c4c(O)cccc4F)c(F)cc23)C(C)C1 the IC50 (second compound 0.1 µM) was over 10000 nM, the IC50 (second compound 0.316 µM) was over 10000 nM and the IC50 (second compound 1 µM) was over 10000 nM. The IC50 (second compound 3.16 µM) was over 10000 nM, the IC50 (second compound 10 µM) was 449 nM and the viability, T/C [1] was 99.3%. For the same compound, the viability, T/C [2] was 97%, the viability, T/C [3] was 99.2% and the viability, T/C [4] was 105%. It also gave a viability, T/C [5] of 104%, a viability, T/C [6] of 107% and a viability, T/C [7] of 99.9%. It also gave a viability, T/C [8] of 93.2%, a viability, T/C [9] of 96.1% and a viability, T/C [10] of 99.4%. The viability, T/C [11] was 101%, the viability, T/C [12] was 102% and the viability, T/C [13] was 101%. It also gave a viability, T/C [14] of 99%, a viability, T/C [15] of 93.4% and a viability, T/C [16] of 90.1%. For the same compound, the viability, T/C [17] was 94.4%, the viability, T/C [18] was 80.2% and the viability, T/C [19] was 80.4%. For the same compound, the viability, T/C [20] was 87.2%, the viability, T/C [21] was 76.6% and the viability, T/C [22] was 82.9%. It also gave a viability, T/C [23] of 80.5%, a viability, T/C [24] of 62.8% and a viability, T/C [25] of 53.9%. It also gave a viability, T/C [26] of 52.8%, a viability, T/C [27] of 56.4% and a viability, T/C [28] of 40.7%. The viability, T/C [29] was 22.7% and the viability, T/C [30] was 19.5%.
With Cn1nccc1Nc1nccc(-c2cc3c(s2)C(C)(C)N(CCN2CCOCC2)C3=O)n1 + C=CC(=O)N1CCN(c2nc(=O)n(-c3c(C)ccnc3C(C)C)c3nc(-c4c(O)cccc4F)c(F)cc23)C(C)C1 the IC50 (second compound 0.1 µM) was 415 nM, the IC50 (second compound 0.316 µM) was 507 nM and the IC50 (second compound 1 µM) was 497 nM. It also gave an IC50 (second compound 3.16 µM) of 289 nM, an IC50 (second compound 10 µM) of 102 nM and a viability, T/C [1] of 101%. For the same compound, the viability, T/C [2] was 89.7%, the viability, T/C [3] was 62.6% and the viability, T/C [4] was 10.8%. For the same compound, the viability, T/C [5] was 5.84%, the viability, T/C [6] was 9.07% and the viability, T/C [7] was 92.9%. For the same compound, the viability, T/C [8] was 91.9%, the viability, T/C [9] was 73.7% and the viability, T/C [10] was 15.9%. The viability, T/C [11] was 7.21%, the viability, T/C [12] was 9.45% and the viability, T/C [13] was 97.5%. It also gave a viability, T/C [14] of 85.5%, a viability, T/C [15] of 74.2% and a viability, T/C [16] of 12.6%. The viability, T/C [17] was 8.16%, the viability, T/C [18] was 10.1% and the viability, T/C [19] was 89.1%. The viability, T/C [20] was 83.5%, the viability, T/C [21] was 47.4% and the viability, T/C [22] was 9.35%. It also gave a viability, T/C [23] of 11.3%, a viability, T/C [24] of 9.1% and a viability, T/C [25] of 70.3%. It also gave a viability, T/C [26] of 50.8%, a viability, T/C [27] of 12.8% and a viability, T/C [28] of 5.63%. It also gave a viability, T/C [29] of 2.98% and a viability, T/C [30] of 2.56%.
For CC(=O)OC12COC1CC(O)C1(C)C(=O)C(O)C3=C(C)C(OC(=O)C(O)C(NC(=O)OC(C)(C)C)c4ccccc4)CC(O)(C(OC(=O)c4ccccc4)C21)C3(C)C (stereo not given) + C=CC(=O)N1CCN(c2nc(OCC3CCCN3C)nc3c2CCN(c2cccc4cccc(C)c24)C3)CC1CC#N, the IC50 (second compound 0.0316 µM) was under 10 nM, the IC50 (second compound 0.1 µM) was under 10 nM and the IC50 (second compound 0.316 µM) was under 10 nM. The IC50 (second compound 1 µM) was under 10 nM, the IC50 (second compound 3.16 µM) was under 10 nM and the viability, T/C [31] was 5.4%. The viability, T/C [32] was 3.51%, the viability, T/C [33] was 2.98% and the viability, T/C (second compound 0.0316 µM, first compound 0.316 µM) was 2.96%. It also gave a viability, T/C (second compound 0.0316 µM, first compound 1 µM) of 3.29%, a viability, T/C (second compound 0.0316 µM, first compound 3.16 µM) of 3.21% and a viability, T/C [34] of 4.93%. It also gave a viability, T/C [1] of 3.47%, a viability, T/C [2] of 3.22% and a viability, T/C [3] of 2.86%. For the same compound, the viability, T/C [4] was 3.09%, the viability, T/C [5] was 3.2% and the viability, T/C [35] was 3.71%. It also gave a viability, T/C [7] of 3.26%, a viability, T/C [8] of 3.24% and a viability, T/C [9] of 2.85%. For the same compound, the viability, T/C [10] was 2.97%, the viability, T/C [11] was 3.26% and the viability, T/C [36] was 4.4%. For the same compound, the viability, T/C [13] was 4.12%, the viability, T/C [14] was 3.41% and the viability, T/C [15] was 3%. It also gave a viability, T/C [16] of 3.17%, a viability, T/C [17] of 2.9% and a viability, T/C [37] of 4.54%. For the same compound, the viability, T/C [19] was 3.92%, the viability, T/C [20] was 3.17% and the viability, T/C [21] was 3.26%. For the same compound, the viability, T/C [22] was 3.28% and the viability, T/C [23] was 3.25%.
In the case of CN(C)C/C=C/C(=O)Nc1cc2c(Nc3ccc(F)c(Cl)c3)ncnc2cc1O[C@H]1CCOC1 + C=CC(=O)N1CCN(c2nc(OCC3CCCN3C)nc3c2CCN(c2cccc4cccc(C)c24)C3)CC1CC#N, the IC50 (second compound 0.0316 µM) is reported as over 100 nM, the IC50 (second compound 0.1 µM) is reported as over 100 nM and the IC50 (second compound 0.316 µM) is reported as over 100 nM. It also gave an IC50 (second compound 1 µM) of over 100 nM, an IC50 (second compound 3.16 µM) of under 0.316 nM and a viability, T/C (second compound 0.0316 µM, first compound 0.000316 µM) of 98.6%. For the same compound, the viability, T/C (second compound 0.0316 µM, first compound 0.001 µM) was 106%, the viability, T/C (second compound 0.0316 µM, first compound 0.00316 µM) was 100% and the viability, T/C [31] was 103%. For the same compound, the viability, T/C [32] was 118%, the viability, T/C [33] was 112% and the viability, T/C (second compound 0.1 µM, first compound 0.000316 µM) was 109%. The viability, T/C (second compound 0.1 µM, first compound 0.001 µM) was 95.5%, the viability, T/C (second compound 0.1 µM, first compound 0.00316 µM) was 94% and the viability, T/C [34] was 117%. For the same compound, the viability, T/C [1] was 110%, the viability, T/C [2] was 105% and the viability, T/C (second compound 0.316 µM, first compound 0.000316 µM) was 102%. It also gave a viability, T/C (second compound 0.316 µM, first compound 0.001 µM) of 102%, a viability, T/C (second compound 0.316 µM, first compound 0.00316 µM) of 103% and a viability, T/C [35] of 109%. The viability, T/C [7] was 111%, the viability, T/C [8] was 105% and the viability, T/C (second compound 1 µM, first compound 0.000316 µM) was 94.6%. It also gave a viability, T/C (second compound 1 µM, first compound 0.001 µM) of 94.5%, a viability, T/C (second compound 1 µM, first compound 0.00316 µM) of 112% and a viability, T/C [36] of 106%. It also gave a viability, T/C [13] of 98.7%, a viability, T/C [14] of 105% and a viability, T/C (second compound 3.16 µM, first compound 0.000316 µM) of 0.97%. It also gave a viability, T/C (second compound 3.16 µM, first compound 0.001 µM) of 0.41%, a viability, T/C (second compound 3.16 µM, first compound 0.00316 µM) of 0.31% and a viability, T/C [37] of 0.31%. It also gave a viability, T/C [19] of 0.23% and a viability, T/C [20] of 0.38%.
